From patent US20080069785A1, “PEST-CONTROL COMPOSITIONS, AND METHODS AND PRODUCTS UTILIZING SAME” (priority 2004, published 2008)

Test system: cockroaches (Blattella germanica)
Test: Weeklong surface area toxicity test on cockroaches (Example 19)
Type: in vivo
Details: for cockroaches alive (of five): 0-1 days; for cockroaches alive (of five per cup): 3-4 days treatment
Method: In order determine the toxicity of the formulation to the insect after application to a surface over a period of time, the following test was performed. […] Cockroaches were placed in the cups on the first day following the application of the formulations, on the third day following the application of the formulations, and on the sixth day following the application of the formulations in order to monitor the toxicity of the formulations after a period of time had elapsed. The mortality of the cockroaches was then recorded at the time intervals noted. The five cockroaches placed in each cup were one week old cockroaches (Blattella germanica) which had been reared at twenty seven degrees centigrade, at sixty five percent relative humidity, and on a twelve hour light to dark photoperiod. Each of the cups had Fluon®AD1 treated sides to prevent the escape of the cockroaches.

Structure (SMILES): CCCCCCCCCC(C)=O [Undecanone, 2-Undecanone]
- cockroaches alive (of five) (0.02 μL/cm^2 (1 μL), 5 min): 5
- cockroaches alive (of five) (0.02 μL/cm^2 (1 μL), 10 min): 5
- cockroaches alive (of five) (0.02 μL/cm^2 (1 μL), 15 min): 5
- cockroaches alive (of five) (0.02 μL/cm^2 (1 μL), 30 min): 5
- cockroaches alive (of five) (0.02 μL/cm^2 (1 μL), 60 min): 5
- cockroaches alive (of five) (0.02 μL/cm^2 (1 μL), 90 min): 5
- cockroaches alive (of five) (0.02 μL/cm^2 (1 μL), 2 h): 5
- cockroaches alive (of five) (0.02 μL/cm^2 (1 μL), 4 h): 5
- cockroaches alive (of five) (0.02 μL/cm^2 (1 μL), 17.5 h): 5
- cockroaches alive (of five) (0.02 μL/cm^2 (1 μL), 18 h): 5
- cockroaches alive (of five) (0.02 μL/cm^2 (1 μL), 21 h): 5
- cockroaches alive (of five) (0.02 μL/cm^2 (1 μL), 24 h): 5
- cockroaches alive (of five) (0.02 μL/cm^2 (1 μL), 27.5 h): 5
- cockroaches alive (of five) (0.02 μL/cm^2 (1 μL), 29 h): 5
- cockroaches alive (of five) (0.02 μL/cm^2 (1 μL), 30 h): 5
- cockroaches alive (of five) (0.09 μL/cm^2 (5 μL), 5 min): 5
- cockroaches alive (of five) (0.09 μL/cm^2 (5 μL), 10 min): 5
- cockroaches alive (of five) (0.09 μL/cm^2 (5 μL), 15 min): 4
- cockroaches alive (of five) (0.09 μL/cm^2 (5 μL), 30 min): 4
- cockroaches alive (of five) (0.09 μL/cm^2 (5 μL), 60 min): 4
- cockroaches alive (of five) (0.09 μL/cm^2 (5 μL), 90 min): 4
- cockroaches alive (of five) (0.09 μL/cm^2 (5 μL), 2 h): 4
- cockroaches alive (of five) (0.09 μL/cm^2 (5 μL), 4 h): 4
- cockroaches alive (of five) (0.09 μL/cm^2 (5 μL), 17.5 h): 4
- cockroaches alive (of five) (0.09 μL/cm^2 (5 μL), 18 h): 4
- cockroaches alive (of five) (0.09 μL/cm^2 (5 μL), 21 h): 4
- cockroaches alive (of five) (0.09 μL/cm^2 (5 μL), 24 h): 4
- cockroaches alive (of five) (0.09 μL/cm^2 (5 μL), 27.5 h): 3
- cockroaches alive (of five) (0.09 μL/cm^2 (5 μL), 29 h): 3
- cockroaches alive (of five) (0.09 μL/cm^2 (5 μL), 30 h): 3
- cockroaches alive (of five) (0.19 μL/cm^2 (10 μL), 5 min): 5
- cockroaches alive (of five) (0.19 μL/cm^2 (10 μL), 10 min): 5
- cockroaches alive (of five) (0.19 μL/cm^2 (10 μL), 15 min): 5
- cockroaches alive (of five) (0.19 μL/cm^2 (10 μL), 30 min): 2
- cockroaches alive (of five) (0.19 μL/cm^2 (10 μL), 60 min): 0
- cockroaches alive (of five) (0.19 μL/cm^2 (10 μL), 90 min): 0
- cockroaches alive (of five) (0.19 μL/cm^2 (10 μL), 2 h): 0
- cockroaches alive (of five) (0.19 μL/cm^2 (10 μL), 4 h): 0
- cockroaches alive (of five) (0.19 μL/cm^2 (10 μL), 17.5 h): 0
- cockroaches alive (of five) (0.19 μL/cm^2 (10 μL), 18 h): 0
- cockroaches alive (of five) (0.19 μL/cm^2 (10 μL), 21 h): 0
- cockroaches alive (of five) (0.19 μL/cm^2 (10 μL), 24 h): 0
- cockroaches alive (of five) (0.19 μL/cm^2 (10 μL), 27.5 h): 0
- cockroaches alive (of five) (0.19 μL/cm^2 (10 μL), 29 h): 0
- cockroaches alive (of five) (0.19 μL/cm^2 (10 μL), 30 h): 0
- cockroaches alive (of five) (0.95 μL/cm^2 (50 μL), 5 min): 0
- cockroaches alive (of five) (0.95 μL/cm^2 (50 μL), 10 min): 0
- cockroaches alive (of five) (0.95 μL/cm^2 (50 μL), 15 min): 0
- cockroaches alive (of five) (0.95 μL/cm^2 (50 μL), 30 min): 0
- cockroaches alive (of five) (0.95 μL/cm^2 (50 μL), 60 min): 0
- cockroaches alive (of five) (0.95 μL/cm^2 (50 μL), 90 min): 0
- cockroaches alive (of five) (0.95 μL/cm^2 (50 μL), 2 h): 0
- cockroaches alive (of five) (0.95 μL/cm^2 (50 μL), 4 h): 0
- cockroaches alive (of five) (0.95 μL/cm^2 (50 μL), 17.5 h): 0
- cockroaches alive (of five) (0.95 μL/cm^2 (50 μL), 18 h): 0
- cockroaches alive (of five) (0.95 μL/cm^2 (50 μL), 21 h): 0
- cockroaches alive (of five) (0.95 μL/cm^2 (50 μL), 24 h): 0
- cockroaches alive (of five) (0.95 μL/cm^2 (50 μL), 27.5 h): 0
- cockroaches alive (of five) (0.95 μL/cm^2 (50 μL), 29 h): 0
- cockroaches alive (of five) (0.95 μL/cm^2 (50 μL), 30 h): 0
- cockroaches alive (of five per cup) (0.02 μL/cm^2 (1 μL), 5 min): 5
- cockroaches alive (of five per cup) (0.02 μL/cm^2 (1 μL), 10 min): 5
- cockroaches alive (of five per cup) (0.02 μL/cm^2 (1 μL), 15 min): 5
- cockroaches alive (of five per cup) (0.02 μL/cm^2 (1 μL), 30 min): 5
- cockroaches alive (of five per cup) (0.02 μL/cm^2 (1 μL), 60 min): 5
- cockroaches alive (of five per cup) (0.02 μL/cm^2 (1 μL), 90 min): 5
- cockroaches alive (of five per cup) (0.02 μL/cm^2 (1 μL), 2 h): 5
- cockroaches alive (of five per cup) (0.02 μL/cm^2 (1 μL), 4 h): 5
- cockroaches alive (of five per cup) (0.02 μL/cm^2 (1 μL), 23 h): 5
- cockroaches alive (of five per cup) (0.02 μL/cm^2 (1 μL), 24 h): 5
- cockroaches alive (of five per cup) (0.02 μL/cm^2 (1 μL), 27 h): 5
- cockroaches alive (of five per cup) (0.02 μL/cm^2 (1 μL), 30 h): 5
- cockroaches alive (of five per cup) (0.09 μL/cm^2 (5 μL), 5 min): 5
- cockroaches alive (of five per cup) (0.09 μL/cm^2 (5 μL), 10 min): 5
- cockroaches alive (of five per cup) (0.09 μL/cm^2 (5 μL), 15 min): 5
- cockroaches alive (of five per cup) (0.09 μL/cm^2 (5 μL), 30 min): 5
- cockroaches alive (of five per cup) (0.09 μL/cm^2 (5 μL), 60 min): 5
- cockroaches alive (of five per cup) (0.09 μL/cm^2 (5 μL), 90 min): 5
- cockroaches alive (of five per cup) (0.09 μL/cm^2 (5 μL), 2 h): 5
- cockroaches alive (of five per cup) (0.09 μL/cm^2 (5 μL), 4 h): 5
